# Reference: patent publication US20230310435A1, “HOST DEFENSE PROTEIN (HDP) MIMETICS FOR PROPHYLAXIS AND/OR TREATMENT OF INFLAMMATORY DISEASES OF THE GASTROINTESTINAL TRACT” (priority 2015, published 2023)
# Values joined by “and” are separate entries in the source; they are usually repeats but may differ in a detail not shown here. Equal values may be shown once. Where a name gives a salt, the structure may show the parent alone. Read-outs that look alike come from different tables or passages of the source.
# How the values were obtained:
# [1] = target: human PDE4B2 (Homo sapiens, UniProt Q07343); experiment: PDE-Glo phosphodiesterase assay, PDE4; format: biochemical; settings: 8 ng PDE4B, 1 μM cAMP substrate, 15 min pre-incubation; read-out: IC50, inhibition of PDE4
# human PDE4B2, sequence (Q07343 1-564 isoform Q07343-2): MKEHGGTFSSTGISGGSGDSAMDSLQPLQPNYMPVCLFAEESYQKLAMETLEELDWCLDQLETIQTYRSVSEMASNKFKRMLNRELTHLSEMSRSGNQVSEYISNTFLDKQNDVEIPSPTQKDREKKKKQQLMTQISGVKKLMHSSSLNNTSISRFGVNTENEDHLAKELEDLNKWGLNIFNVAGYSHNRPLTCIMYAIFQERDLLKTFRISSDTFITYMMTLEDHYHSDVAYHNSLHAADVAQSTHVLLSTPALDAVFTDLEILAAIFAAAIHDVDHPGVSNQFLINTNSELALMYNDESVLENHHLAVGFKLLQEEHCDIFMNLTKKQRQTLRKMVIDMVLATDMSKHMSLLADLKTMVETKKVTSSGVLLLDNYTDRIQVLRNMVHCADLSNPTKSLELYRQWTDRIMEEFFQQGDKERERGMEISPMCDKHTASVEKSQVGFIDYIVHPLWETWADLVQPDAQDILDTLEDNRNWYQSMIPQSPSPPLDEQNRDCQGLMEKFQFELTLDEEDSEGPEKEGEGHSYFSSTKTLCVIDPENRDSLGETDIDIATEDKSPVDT
# Description: Method for FIG. 1. […] The compounds and PDE4B (BPS Biosciences, San Diego, CA) were mixed and pre-incubated at room temperature for 15 minutes. Substrate was added and the reaction was incubated for 7 minutes at room temperature. Data are presented as luminescence units (RLU).
# Method for FIG. 2. Phosphodiesterase inhibition assays of PDE4 were performed, using PMX-60056. The PDE-Glo phosphodiesterase assay (Promega, Madison, WI, USA Catalog No. V1361) was performed using 8 ng of PDE4B (BPS Biosciences, San Diego, CA). […] The compounds and PDE4B were mixed and pre-incubated at room temperature for 15 minutes. Substrate was added and the reaction was incubated for 7 minutes at room temperature. Data are presented as luminescence units (RLU).
# Phosphodiesterase type 4 (PDE4) is predominant phosphodiesterase expressed in neutrophils, T cells and macrophages. PDE inhibitors show broad spectrum of anti-inflammatory effects in almost all inflammatory cells. PDE4 inhibitors, block the degradative action of PDE4 on cAMP, thereby increasing intracellular levels of cAMP levels which mediate phosphorylation of protein kinases. […] Data are presented as luminescence units (RLU).
# The PDE-Glo phosphodiesterase assay was performed according to the Method described for FIG. 2, using 8 ng of PDE4B, 1 μM cAMP substrate PMX-60056. Data are presented as luminescence units (RLU). […]
# [2] = system: LPS-induced MMP-9 release, NR8383 cells; experiment: LPS-induced MMP-9 release in NR8383 rat macrophages (ELISA); format: cell-based
# Description: Method for FIG. 9. […] After 8 hours, supernatants were collected for MMP9 measurement by ELISA using immunoassay kit (R&D Systems, Minneapolis, MN) according to manufacturer's instructions.
# The MMP-9 inhibition assay was performed according to the Method described for FIG. 9.
# (§1) PDE4 and PDE3 inhibition results in subsequent down-regulation of pro-inflammatory cytokines/chemokines and its regulators, and experiments were conducted to confirm such down-regulation by brilacidin in ex vivo cell-based assays. In these assays, cells were exposed to brilacidin 45 minutes before an 8-hour lipopolysaccharide (LPS) stimulation in the presence of brilacidin; cytokine/enzyme concentrations were determined by ELISA using a standard immunoassay kit.
# [3] = system: LPS-induced CINC-3 release, NR8383 cells; experiment: LPS-induced CINC-3 (CXCL2) release in NR8383 rat alveolar macrophages (ELISA); format: cell-based; settings: Macrophage, 8-hour brilacidin and LPS exposure, read-out: IC50, inhibition of LPS-induced CINC-3 release
# Description: To examine the effect of brilacidin on production in cells of cytokine-induced neutrophil chemoattractant-3 (CINC-3; CXCL2), rat alveolar macrophage (NR8383) cells were pretreated with a range of brilacidin concentrations for 45 minutes, followed by treatment with 1 μg/ml LPS from E. coli (Sigma, St. Louis, MO) for 8 hours in the presence of brilacidin. After 8 hours, supernatants were collected for CINC-3 measurement by ELISA. CINC-3 was measured using an immunoassay kit according to manufacturer's instructions (R&D Systems, Minneapolis, MN).
# as §1
# [4] = system: acetic acid-induced colitis; format: in vivo; settings: for reduction of UC score: not significantly
# Description: (§2) Method for FIG. 14. […] Balb/c mice were fasted for 24 hours. Colitis was induced by injecting 200 μL of 4% acetic acid into the rectum. […] Another group of animals were treated with 5-ASA (5-aminosalicylic acid or mesalamine), and another received no treatment. Seven days after the first dose, five cm of intestine were cleaned in cold saline then weighed.
# as §2, with “15.” for “14.”, “dose the colon was examined visually for mucosal injury and scored according to the Table below.” for “dose, five cm of intestine were cleaned in cold saline then weighed.”
# Briefly, colitis was induced by injecting 4% acetic acid into the rectum.
# [5] = system: DSS-induced colitis; experiment: Dextran sulfate sodium (DSS)-induced acute colitis model; format: in vivo, male C57BL/6 mice
# Description: The efficacy of brilacidin administered was investigated in a murine model of chemically-induced acute colitis using dextran sulfate sodium (DSS). This was a different in vivo model of IBD to the testing performed in Examples 16 and 17 (where mucosal injury was induced by using acetic acid). DSS-induced colitis in mice is characterized by weight loss, bloody diarrhea, intestinal ulcerations and infiltrations with granulocytes. In mice, DSS was administered from Day 0 to Day 11, as a 5% (w/v) DSS solution in the drinking water of male C57BL/6 mice (Kim J J, et al., J. Vis. Exp., 2012, 60, 3678), to induce severe murine colitis. On Days 7-11, test compound brilacidin (400 mg/kg) or positive control 5-ASA (50 mg/kg) or water (negative control) were administered as a solution, per rectum. On Days 6, 10 and 11, rectal bleeding was assessed using a Hemoccult® kit and stool consistency was visually assessed; severity of symptoms were scored on a scale of 0 (normal) to 4 (severe). Level of pro-inflammatory cytokines interleukin (IL)-6 and IL-1β in distal colon tissue were determined from excised colons using conventional ELISA methods.
# [6] = system: Ulcerative Proctosigmoiditis/Ulcerative Proctitis (UP/UPS); experiment: Phase 2 clinical trial CTIX-BRI-206 in Ulcerative Proctitis/Ulcerative Proctosigmoiditis; format: in vivo, human
# Description: In a Phase 2 study (CTIX-BRI-206), clinical remission (with Endoscopic response) was achieved after 6 weeks of treatment in >50% subjects in each treatment cohort (50 mg, 100 mg, and 200 mg brilacidin, as daily retention enema) (FIG. 21, Panel A). Inflammatory biomarkers IL-1β and IL-6 were reduced in colonic tissue biopsies collected at Week 6 (Day 42) compared to those biopsies collected at baseline (FIG. 21, Panel B).
# [7] = by Day 11, brilacidin 400 mg/kg per rectum Days 7-11, p<0.001
# [8] = end of study, brilacidin 400 mg/kg or 5-ASA 50 mg/kg per rectum Days 7-11
smiles,measurement,setting,value
"N=C(N)NCCCCC(=O)Nc1cc(C(F)(F)F)cc(NC(=O)c2cc(C(=O)Nc3cc(C(F)(F)F)cc(NC(=O)CCCCNC(=N)N)c3O[C@@H]3CCNC3)ncn2)c1O[C@@H]1CCNC1 [PMX-30063, N^4,N^6-bis(2-((R)-pyrrolidin-3-yloxy)-3-((4-carbamoylbutyl)guanidine)-5-(trifluoromethyl)phenyl)pyrimidine-4,6-dicarboxamide tetrahydrochloride salt]",IC50,[1],~3000 nM and 3000 nM
same,IC50,"[2]; Rattus norvegicus, Macrophage, NR8383 cells, ELISA, 45 min pretreatment, 8-hour LPS, read-out: IC50, inhibition of LPS-induced MMP-9 release",2300 nM
same,decrease in MMP-9 levels,"[2]; at 12.5 μM, NR8383, LPS 1 μg/ml 8 h",50%
same,IC50,[3],425 nM
same,reduction of UC score,[4]; 40 mg/kg (so in the source) intrarectally,67%
same,reduction of median UC score,[4]; 100 mg/kg intrarectally,33%
same,reduction of UC score,[4]; 200 mg/kg intrarectally,67%
same,reduction of intestine weights compared to untreated controls,[4]; 400 mg/kg intrarectally,17%
same,ulcerative colitis score compared to untreated controls (in words),[4]; 400 mg/kg intrarectally,significantly reduced
same,tolerability (in words),"[4]; mouse, in vivo",well-tolerated
same,ulcerative colitis score (in words),"[4]; rectal administration, 100, 200, 400 mg/kg",dose dependent decrease
same,intestine weights compared to untreated controls (in words),"[4]; rectal administration, 100-400 mg/kg once daily","reduced, but not significantly"
same,rectal bleeding score compared to DSS-treated control (in words),[5]; [7],significant decrease
same,stool consistency compared to DSS-treated control (in words),[5]; [7],significantly more firm
same,mean reduction in IL-1β in distal colon tissue compared to DSS-treated control group,[5]; [8],27%
same,mean reduction in IL-6 in distal colon tissue compared to DSS-treated control group,[5]; [8],40%
same,IL-1β in colonic tissue biopsies vs baseline (in words),[6]; Week 6 (Day 42),reduced
same,IL-6 in colonic tissue biopsies vs baseline (in words),[6]; Week 6 (Day 42),reduced
same,subjects achieving clinical remission (with Endoscopic response),"[6]; after 6 weeks, each cohort (50 mg, 100 mg, 200 mg, daily retention enema)",> 50%
